target: T1, human HPK1 protein (Homo sapiens, UniProt Q92918); assay: Human HPK1 protein TR-FRET assay; assay type: biochemical; details: 1 mM ATP, Table 19
T1 construct: recombinant human HPK1 protein (a.a. 1-346) was expressed in Sf9 insect cells; GST (N); purchased Signalchem M23-11G; host or cells: Sf9 insect cells (baculovirus)
T1 sequence (Q92918 1-346): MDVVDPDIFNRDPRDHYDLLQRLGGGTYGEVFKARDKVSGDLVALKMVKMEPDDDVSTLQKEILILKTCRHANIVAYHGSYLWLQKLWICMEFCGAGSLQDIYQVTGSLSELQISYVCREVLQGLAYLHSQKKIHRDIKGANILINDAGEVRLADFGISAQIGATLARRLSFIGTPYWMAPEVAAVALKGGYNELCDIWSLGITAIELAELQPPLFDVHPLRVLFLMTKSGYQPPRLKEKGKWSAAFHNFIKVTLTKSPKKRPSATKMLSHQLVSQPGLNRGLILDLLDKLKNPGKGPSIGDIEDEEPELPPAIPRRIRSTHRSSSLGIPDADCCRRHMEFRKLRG
Procedure: Exemplary compounds from the above Examples were tested for ability to inhibit HPK1 using a human HPK1 protein TR-FRET Assay. Assay procedures and results are described below.
N-terminal GST-tagged recombinant human HPK1 protein (a.a. 1-346) was expressed in Sf9 insect cells using a baculovirus expression system (Signalchem Catalog #M23-11G). The enzyme was diluted in assay buffer (50 mM Tris pH 7.5, 1 mM MgCl2, 0.01% NP-40 and 2 mM DTT) to obtain a 4× working solution at a concentration of 40 nM HPK1 enzyme.
A 5 μM stock of ULight™ CREBtide peptide RRPSYRK (Perkin Elmer Product No. TRF0107-M) derived from human cAMP Response Element Binding (CREB) Protein was prepared in storage buffer containing 50 mM Tris-HCl (pH 7.4), 0.9% NaCl, 0.1% BSA, and 0.05% sodium azide. The CREBtide substrate was diluted in assay buffer (50 mM Tris pH 7.5, 1 mM MgCl2, 0.01% NP-40, 2 mM DTT) with 2 mM ATP to a final concentration of 200 nM CREBtide peptide to obtain a 2× working solution of substrate. HPK1 enzyme and CREBtide substrate solutions were mixed with compounds diluted in DMSO to obtain a final concentration of enzyme, substrate, and ATP of 10 nM, 100 nM, and 1 mM, respectively, in 1% DMSO. The final assay mixture was incubated at room temperature for 60 minutes.
A solution of Europium-labeled anti-phospho-CREB (Ser133) antibody (Perkin Elmer Product No. TRF0200-M), EDTA and LANCE™ Detection Buffer (Perkin Elmer Product No. CR97-100) were added to each well to obtain a final concentration of 2 nM antibody, 10 mM EDTA and 1× LANCE buffer. The resulting mixture was incubated at room temperature for 60 minutes.
The fluorescence resonance energy transfer (FRET) signal was measured on an Envision plate reader: Excitation filter=340 nm, APC emission=665 nm, Europium emission=615 nm, dichroic mirror=D400/D630, delay time=100 μs, and integration time=200 μs. The half maximal inhibitory concentration (IC50) values for compounds were calculated from the quotient of the fluorescence signal at 665 nm divided by the fluorescence signal at 615 nm. The quotient of the fluorescence signals in the presence of DMSO without compound is set as 100 percent enzymatic activity. A 4-parameter logistic model in PRISM (GraphPad) was used to calculate the IC50 for a given compound.

IC50 [µM]	Structure (SMILES)
< 0.5	CCN1CCN(Cc2ccc(NC(=O)N3Cc4cc(Oc5ccnc6[nH]c(C)cc56)ccc4C(C)C3)cc2C(F)(F)F)CC1 (stereo not drawn) [IV-19]
0.5 to 5	CCN1CCN(Cc2ccc(NC(=O)N3CCc4ccc(Oc5ccnc6[nH]ccc56)cc4C3C)cc2C(F)(F)F)CC1 (stereo not drawn) [IV-1]
0.5 to 5	CCN1CCN(Cc2ccc(NC(=O)N3CCc4ncc(Oc5ccnc6[nH]ncc56)cc4C3C)cc2C(F)(F)F)CC1 (single isomer, unassigned) [VIII-4]
< 0.5	CCN1CCC(Oc2ncc(NC(=O)N3CCc4ccc(Oc5ccnc6[nH]c(C)cc56)cc4[C@@H]3C)cc2C(F)(F)F)CC1 [VI-3]
< 0.5	CCN1CCN(Cc2ccc(NC(=O)N3Cc4cc(Oc5ccnc6[nH]ccc56)ccc4C(C)C3)cc2C(F)(F)F)CC1 (stereo not drawn) [IV-3]
< 0.5	CCN1CCN(Cc2ccc(NC(=O)N3CCc4ccc(Oc5cc(Nc6ncc[nH]6)ncn5)cc4C3)cc2C(F)(F)F)CC1 [II-17]
< 0.5	CCN1CCN(Cc2ccc(NC(=O)C3CCc4ccc(Oc5ncnn6cccc56)cc4C3)cc2C(F)(F)F)CC1 (stereo not drawn) [compound 13, N-(4-((4-ethylpiperazin-1-yl)methyl)-3-(trifluoromethyl)phenyl)-7-(pyrrolo[2,1-f][1,2,4]triazin-4-yloxy)-1,2,3,4-tetrahydronaphthalene-2-carboxamide]
< 0.5	CCN1CCN(Cc2ccc(NC(=O)N3Cc4cc(Oc5ccnc6[nH]c(C)cc56)cnc4C(C)C3)cc2C(F)(F)F)CC1 (single isomer, unassigned) [VII-5]
< 0.5	CCN1CCN(Cc2ccc(NC(=O)N3CCc4ccc(Oc5ccnn6cccc56)cc4[C@@H]3C)cc2C(F)(F)F)CC1 [V-6]
0.5 to 5	CCN1CCN(Cc2ccc(NC(=O)N3CCc4ccc(Oc5ccnc(C(N)=O)c5)cc4[C@@H]3C)cc2C(F)(F)F)CC1 [V-12]
< 0.5	CCN1CCN(Cc2ccc(NC(=O)N3CCc4ccc(Oc5ccnc(C(=O)NC)c5)cc4[C@@H]3C)cc2C(F)(F)F)CC1 [V-13]
< 0.5	CCN1CCN(Cc2ccc(NC(=O)C3CCc4ccc(Oc5ccnc6[nH]c(C)cc56)cc4N3C)cc2C(F)(F)F)CC1 (stereo not drawn) [compound 16, N-(4-((4-ethylpiperazin-1-yl)methyl)-3-(trifluoromethyl)phenyl)-1-methyl-7-((2-methyl-1H-pyrrolo[2,3-b]pyridin-4-yl)oxy)-1,2,3,4-tetrahydroquinoline-2-carboxamide]
< 0.5	CCC1CN(C(=O)Nc2ccc(CN3CCN(CC)CC3)c(C(F)(F)F)c2)Cc2cc(Oc3ccnc4[nH]ccc34)ccc21 (stereo not drawn) [IV-22]
< 0.5	CCN1CCN(Cc2ccc(NC(=O)N3Cc4cc(Oc5ccnc6[nH]c(C)cc56)ccc4C(O)C3)cc2C(F)(F)F)CC1 (stereo not drawn) [compound 18, N-(4-((4-ethylpiperazin-1-yl)methyl)-3-(trifluoromethyl)phenyl)-4-hydroxy-7-((2-methyl-1H-pyrrolo[2,3-b]pyridin-4-yl)oxy)-3,4-dihydroisoquinoline-2(1H)-carboxamide]
< 0.5	CCN1CCN(Cc2ccc(NC(=O)N3CCc4ccc(Oc5ccnc6[nH]ccc56)cc4[C@@H]3C)cc2Cl)CC1 [V-3]
< 0.5	CCN1CCN(Cc2ccc(NC(=O)N3Cc4cc(Oc5ccnc6[nH]c(C)cc56)cnc4C(C)C3)cc2C(F)(F)F)CC1 (single isomer, unassigned) [VII-4]

same assay, conditions: 1 mM ATP, Table 20

IC50 [µM]	Structure (SMILES)
< 0.5	CCN1CCN(Cc2ccc(NC(=O)N3Cc4cc(Oc5ncnc6[nH]c(C)cc56)cnc4[C@@H](C)C3)cc2C(F)(F)F)CC1 [XI-6]
< 0.5	CN1CCN(Cc2ncc(NC(=O)N3CCc4ccc(Oc5c(F)cnc6[nH]c(-c7cccnc7)cc56)cc4C3)cc2C(F)(F)F)CC1 [XII-6]
< 0.5	C[C@@H]1CN(C(=O)Nc2ccc(CN3CCN(C)CC3)c(C(F)(F)F)c2)Cc2cc(Oc3ccnc4[nH]c(CO)cc34)cnc21 [XIV-75]
< 0.5	CCC1CN(C(=O)Nc2ccc(CN3CCN(CC)CC3)c(C(F)(F)F)c2)Cc2cc(Oc3ncnc4[nH]c(C)cc34)cnc21 (stereo not drawn) [XIV-3]
< 0.5	CN1CCN(Cc2cc(F)c(NC(=O)N3CCc4ccc(Oc5c(F)cnc6[nH]c(-c7cnn(C)c7)cc56)cc4C3)cc2C(F)(F)F)CC1 [XII-16]
< 0.5	C[C@@H]1Cc2ccc(Oc3c(F)cnc4[nH]c(C5(O)CC5)cc34)cc2CN1C(=O)Nc1ccc(CN2CCN(C)CC2)c(C(F)(F)F)c1 [XVI-9]
< 0.5	CC[C@H]1CN(C(=O)Nc2ccc(CN3CCN(C)CC3)c(C(F)(F)F)c2)Cc2cc(Oc3ccnc4[nH]c(C(=O)N5CCCC5)cc34)cnc21 [XIV-102]
0.5 to 5	CCN1CCN(Cc2ccc(NC(=O)N3Cc4cc(Oc5ccnc(NCCO)c5)cnc4C(C)C3)cc2C(F)(F)F)CC1 (single isomer, unassigned) [XIV-16]
< 0.5	CC[C@H]1CN(C(=O)Nc2ccc(CN3CCN(C)CC3)c(C(F)(F)F)c2)Cc2cc(Oc3ncnc4[nH]c(C(=O)NC)cc34)cnc21 [XIV-121]
< 0.5	CCN1CCN(Cc2ccc(NC(=O)N3CCc4ncc(Oc5ccnc6[nH]c(C)cc56)cc4C3C)cc2C(F)(F)F)CC1 (single isomer, unassigned) [XI-9]
< 0.5	C[C@H]1CN(C(=O)Nc2ccc(CN3CCN(C)CC3)c(C(F)(F)F)c2)Cc2cc(Oc3c(F)cnc4[nH]c(C5(O)COC5)cc34)cnc21 [XIV-88]
< 0.5	CC[C@@H]1CN(C(=O)Nc2ccc(CN3CCN(C)CC3)c(C(F)(F)F)c2)Cc2cc(Oc3ccnc4[nH]c(C5(O)COC5)cc34)ccc21 [XV-12]
< 0.5	CCN1CCN(Cc2ccc(NC(=O)N3Cc4cc(Oc5ccnc6[nH]c(C)cc56)cnc4[C@H](C)C3)cc2C(F)(F)F)CC1 [XI-5]
< 0.5	CN1CCN(Cc2ccc(NC(=O)N3Cc4cc(Oc5ccnc6[nH]c(C(=O)N(C)C)cc56)ccc4C(C(F)(F)F)C3)cc2C(F)(F)F)CC1 (stereo not drawn) [XVIII-13]
< 0.5	CCN1CCN(Cc2ccc(NC(=O)N3CCc4ncc(Oc5ccnc6[nH]ccc56)cc4[C@@H]3C)cc2C(F)(F)F)CC1 [XI-3]
< 0.5	Cn1cc(-c2cc3c(Oc4ccc5c(c4)CN(C(=O)Nc4ccc(CN6CCN(CCO)CC6)c(C(F)(F)F)c4)CC5)c(F)cnc3[nH]2)cn1 [XII-14]
< 0.5	CC[C@@H]1CN(C(=O)Nc2ccc(CN3CCN(C)CC3)c(C(F)F)c2)Cc2cc(Oc3ccnc4[nH]c(C#N)cc34)ccc21 [XV-18]
< 0.5	CC[C@H]1CN(C(=O)Nc2ccc(CN3CCN(C)CC3)c(C(F)(F)F)c2)Cc2cc(Oc3ccnc4[nH]c(-c5noc(=O)[nH]5)cc34)cnc21 [XIV-132]
< 0.5	Cc1cc2c(Oc3cnc4c(c3)CN(C(=O)Nc3ccc(CN5CCN(C)CC5)c(OC(F)F)c3)C[C@H]4C)ccnc2[nH]1 [XIV-93]
< 0.5	C[C@H]1c2cc(Oc3ccnc4[nH]c(C5(O)COC5)cc34)ccc2CCN1C(=O)Nc1ccc(CN2CCN(CCO)CC2)c(C(F)F)c1 [XIII-11]
< 0.5	CN1CC[C@@H](Oc2ncc(NC(=O)N3CCc4ccc(Oc5c(F)cnc6[nH]c(-c7cnn(C)c7)cc56)cc4C3)cc2C(F)(F)F)[C@@H](O)C1 [XII-4]
< 0.5	CC[C@H]1CN(C(=O)Nc2ccc(CN3CCN(CCO)CC3)c(C(F)(F)F)c2)Cc2cc(Oc3ccnc4[nH]c(CO)cc34)ccc21 [XV-22]
< 0.5	CC[C@H]1CN(C(=O)Nc2ccc(CN3CCN(CCO)CC3)c(C(F)(F)F)c2)Cc2cc(Oc3ccnc4[nH]c(C5CC5)cc34)cnc21 [XIV-60]
< 0.5	C=C(C)c1cc2c(Oc3cnc4c(c3)CN(C(=O)Nc3ccc(CN5CCN(C)CC5)c(C(F)(F)F)c3)C[C@@H]4CC)ccnc2[nH]1 [XIV-152]
< 0.5	CC[C@@H]1CN(C(=O)Nc2ccc(CN3CCNCC3)c(C(F)(F)F)c2)Cc2cc(Oc3ccnc4[nH]c(C5CC5)cc34)cnc21 [XIV-64]
< 0.5	CCN1CCN(Cc2ccc(NC(=O)C3CCc4ncc(Oc5ccnc6[nH]ccc56)cc4C3)cc2C(F)(F)F)CC1 (stereo not drawn) [compound 24, 3-((1H-Pyrrolo[2,3-b]pyridin-4-yl)oxy)-N-(4-((4-ethylpiperazin-1-yl)methyl)-3-(trifluoromethyl)phenyl)-5,6,7,8-tetrahydroquinoline-6-carboxamide]

Reference: patent US20210139484A1, “DIHYDROISOQUINOLINE-2(1H)-CARBOXAMIDE AND RELATED COMPOUNDS AND THEIR USE IN TREATING MEDICAL CONDITIONS” (GOSSAMER BIO SERVICES, INC., priority 2018, published 2021)
